Assay results published in US20100240611A1, “METHODS FOR PREPARING DPP-IV INHIBITOR COMPOUNDS” (priority 2009, published 2010).

Target: T1, DPP-IV (Homo sapiens, UniProt P27487)
T1 construct: in an in vivo protocol study in humans; from tissue; host or cells: human subjects (in vivo)
Experiment: in vivo protocol study in humans: selectivity of DPP-IV inhibition over other dipeptidyl peptidases
Settings: other dipeptidyl peptidases named in the block: DPP-VII, DPP-VIII, DPP-IX, FAP

T1 sequence (P27487 whole entry): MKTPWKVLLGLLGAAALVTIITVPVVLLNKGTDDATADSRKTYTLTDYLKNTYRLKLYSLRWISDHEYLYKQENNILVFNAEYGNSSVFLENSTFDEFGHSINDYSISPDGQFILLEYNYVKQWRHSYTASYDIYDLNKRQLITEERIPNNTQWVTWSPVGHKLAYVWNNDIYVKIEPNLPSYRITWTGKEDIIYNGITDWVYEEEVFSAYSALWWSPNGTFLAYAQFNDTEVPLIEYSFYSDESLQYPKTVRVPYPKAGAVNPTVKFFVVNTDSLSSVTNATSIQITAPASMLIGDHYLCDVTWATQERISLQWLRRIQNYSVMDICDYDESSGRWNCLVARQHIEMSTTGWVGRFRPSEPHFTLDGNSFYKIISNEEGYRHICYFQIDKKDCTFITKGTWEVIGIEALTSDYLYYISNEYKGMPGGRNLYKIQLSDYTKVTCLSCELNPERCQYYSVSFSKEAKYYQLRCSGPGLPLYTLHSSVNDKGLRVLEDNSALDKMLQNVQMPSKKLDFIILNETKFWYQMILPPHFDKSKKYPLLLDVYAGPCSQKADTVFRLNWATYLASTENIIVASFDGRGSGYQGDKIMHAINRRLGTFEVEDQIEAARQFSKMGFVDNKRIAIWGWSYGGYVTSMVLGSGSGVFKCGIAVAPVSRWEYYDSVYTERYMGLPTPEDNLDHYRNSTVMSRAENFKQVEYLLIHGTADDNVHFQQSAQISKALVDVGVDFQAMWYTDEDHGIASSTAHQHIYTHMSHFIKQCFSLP

O=C(CN[C@@H]1CCNC1)N1CCC[C@H]1B(O)O [compound of formula (I), dutogliptin]
selectivity for inhibition of DPP-IV over the other amino dipeptidyl peptidases: maintained selectivity for inhibition of DPP-IV over the other amino dipeptidyl peptidases
